The target in test [1] is T1, human B1R (bradykinin receptor 1) (Homo sapiens, UniProt P46663).
T1 construct: expressed in transfected cells; host or cells: CHO K1 cells
T1 sequence (P46663 1-353): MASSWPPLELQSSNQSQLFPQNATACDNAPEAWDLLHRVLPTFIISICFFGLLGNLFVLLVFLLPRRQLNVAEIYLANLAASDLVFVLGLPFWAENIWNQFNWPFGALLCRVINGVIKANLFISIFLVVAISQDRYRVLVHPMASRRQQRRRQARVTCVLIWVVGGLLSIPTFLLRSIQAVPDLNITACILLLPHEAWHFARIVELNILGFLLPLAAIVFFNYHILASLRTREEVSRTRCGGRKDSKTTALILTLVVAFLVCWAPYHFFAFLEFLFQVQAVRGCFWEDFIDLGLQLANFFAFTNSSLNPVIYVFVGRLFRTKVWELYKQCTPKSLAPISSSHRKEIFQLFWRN
Briefly: FLIPR Ca2+ assay (Fluo-4) on CHO K1 cells stably transfected with the human B1R gene (hB1R cells): % inhibition at 10 μM / IC50, agonist Lys-Des-Arg9-bradykinin. To be noted: CHO-K1, human B1R. Format: cell-based. Put shortly: (§1)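 Stably transfected CHO K1 cells loaded with Fluo-4 and read on FLIPR (λex 488, λem 540 nm; peak fluorescence). Test substance (10 μM) added first, then after 10–20 min the agonist at EC80; % inhibition versus maximum achievable inhibition. IC50 from several concentrations, n=2–3, N≥2.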

Test [2] addresses T2, rat B1R (bradykinin receptor 1) (Rattus norvegicus, UniProt P97583).
T2 construct: expressed in transfected cells; host or cells: CHO K1 cells
T2 sequence (P97583 1-337): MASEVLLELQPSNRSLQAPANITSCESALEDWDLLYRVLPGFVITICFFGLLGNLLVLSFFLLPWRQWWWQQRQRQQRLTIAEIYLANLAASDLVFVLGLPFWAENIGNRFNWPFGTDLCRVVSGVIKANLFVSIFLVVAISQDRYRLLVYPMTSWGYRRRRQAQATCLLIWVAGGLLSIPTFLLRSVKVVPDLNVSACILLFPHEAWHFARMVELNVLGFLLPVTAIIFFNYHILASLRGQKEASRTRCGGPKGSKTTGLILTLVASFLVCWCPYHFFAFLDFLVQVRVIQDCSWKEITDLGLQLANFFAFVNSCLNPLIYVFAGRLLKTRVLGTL
Nature of the test: FLIPR Ca2+ assay (Fluo-4) on CHO K1 cells stably transfected with the B1R gene of the rat (rB1R cells): % inhibition at 10 μM / IC50, agonist Des-Arg9-bradykinin. The test is classed as cell-based. To be noted: CHO-K1, rat B1R. Put shortly: as §1

Structures can show the parent of a compound that is named as a salt.

Usually inhibition stands for the drop in the measured response relative to a control, in per cent.

Turning to `COc1ccc(C(=O)N[C@@H]2CCc3ccc(C(=O)N4CCC5(CCN(c6ccncc6)CC5)C4)cc32)c(Cl)c1` [Example H-63, 2-Chloro-4-methoxy-N-[(1R)-6-(8-pyridin-4-yl-3,8-diazaspiro[4.5]decane-3-carbonyl)-2,3-dihydro-1H-inden-1-yl]-benzamide], the inhibition at 10 µM in test [1] is 100%; in test [2], 104%.
Take `O=C(N[C@@H]1CCc2cc(F)c(C(=O)N3CCC4(CCN(c5ccncc5)CC4)C3)cc21)c1ccccc1Cl` [Example H-64, 2-Chloro-N-[(1R)-5-fluoro-6-(8-pyridin-4-yl-3,8-diazaspiro[4.5]decane-3-carbonyl)-2,3-dihydro-1H-inden-1-yl]-benzamide hydrochloride]: the inhibition at 10 µM in test [1] was determined as 100%; in test [2], 105%.
The like results for `O=C(N[C@@H]1CCOc2cc(F)c(C(=O)N3CCC4(CCN(c5ccncc5)CC4)C3)cc21)c1ccccc1Cl` [Example H-65, 2-Chloro-N-[(4R)-7-fluoro-6-(8-pyridin-4-yl-3,8-diazaspiro[4.5]decane-3-carbonyl)-3,4-dihydro-2H-chromen-4-yl]-benzamide] were, in that order, 100% and 105%.
In the same order, the values of `Cc1cc2c(cc1C(=O)N1CCC3(CC1)CCN(c1ccncc1)CC3)[C@H](NC(=O)c1ccccc1Cl)CC2` [Example H-66, 2-Chloro-N-[(1R)-5-methyl-6-(9-pyridin-4-yl-3,9-diazaspiro[5.5]undecane-3-carbonyl)-2,3-dihydro-1H-inden-1-yl]-benzamide] are 99% and 102%.
On to `O=C(N[C@@H]1CCOc2ccc(C(=O)N3CCC4(CCN(c5ccncc5)CC4)C3)cc21)c1ccccc1Cl` [Example H-67, 2-Chloro-N-[(4R)-6-(8-pyridin-4-yl-3,8-diazaspiro[4.5]decane-3-carbonyl)-3,4-dihydro-2H-chromen-4-yl]-benzamide], for which the inhibition at 10 µM in test [1] is 100%; in test [2], 102%.
The like results for `COc1ccc2cc(C(=O)N[C@@H]3CCc4ccc(C(=O)N5CCC6(CC5)CCN(c5ccncc5)C6)cc43)ccc2c1` [Example H-68, 6-Methoxy-N-[(1R)-6-(3-pyridin-4-yl-3,8-diazaspiro[4.5]decane-8-carbonyl)-2,3-dihydro-1H-inden-1-yl]-naphthalene-2-carboxylic acid amid] were, in that order, 96% and 93%.
On to `O=C(N[C@@H]1CCCc2ccc(C(=O)N3CCCC4(CCCN(c5ccncc5)C4)C3)cc21)c1ccccc1Cl` (stereo partly shown) [Example H-69], for which the inhibition at 10 µM in test [1] amounted to 98%; in test [2], 102%.
The like results for `O=C(N[C@@H]1CCCc2ccc(C(=O)N3CCCC4(CCN(c5ccncc5)C4)C3)cc21)c1ccccc1Cl` (stereo partly drawn) [Example H-70, 2-Chloro-N-[(1R)-7-(2-pyridin-4-yl-2,9-diazaspiro[4.5]decane-9-carbonyl]-1,2,3,4-tetrahydro-naphthalen-1-yl]-benzamide] were, in that order, 90% and 103%.
Consider `O=C(N[C@@H]1CCCc2ccc(C(=O)N3CC4(CCN(c5ccncc5)CC4)C3)cc21)c1ccccc1Cl` [Example H-71, 2-Chloro-N-[(1R)-7-(7-pyridin-4-yl-2,7-diazaspiro[3.5]nonane-2-carbonyl)-1,2,3,4-tetrahydro-naphthalen-1-yl]-benzamide], for which the inhibition at 10 µM in test [1] turned out to be 100%; in test [2] it was 103%.
In the same order, the values of `O=C(N[C@@H]1CCCc2ccc(C(=O)N3CCC4(CC3)CCN(c3ccncc3)C4)cc21)c1ccccc1Cl` [Example H-72] are 100% and 104%.
As for `O=C(N[C@@H]1CCOc2c(F)cc(C(=O)N3CCC4(CCN(c5ccncc5)CC4)C3)cc21)c1ccccc1Cl` [Example H-73, 2-Chloro-N-[(4R)-8-fluoro-6-(8-pyridin-4-yl-3,8-diazaspiro[4.5]decane-3-carbonyl)-3,4-dihydro-2H-chromen-4-yl]-benzamide], the inhibition at 10 µM worked out at 100% in test [1] and 103% in test [2].
In the same order, the values of `Cc1cc(OC(F)(F)F)ccc1C(=O)N[C@@H]1CCc2ccc(C(=O)N3CCC4(CCN(c5ccncc5)CC4)C3)cc21` [Example H-74, 2-Methyl-N-[(1R)-6-(8-pyridin-4-yl-3,8-diazaspiro[4.5]decane-3-carbonyl)-2,3-dihydro-1H-inden-1-yl]-4-(trifluoromethyloxy)-benzamide] are 94% and 100%.
Turning to `Cc1cc(OC(F)(F)F)ccc1C(=O)N[C@@H]1CCc2ccc(C(=O)N3CCC4(CC3)CCN(c3ccncc3)C4)cc21` [Example H-75, 2-Methyl-N-[(1R)-6-(3-pyridin-4-yl-3,8-diazaspiro[4.5]decane-8-carbonyl)-2,3-dihydro-1H-inden-1-yl]-4-(trifluoromethyloxy)-benzamide], the inhibition at 10 µM in test [1] was determined as 29%; in test [2] it was 64%.
With `O=C(N[C@@H]1CCc2ccc(C(=O)N3CCC4(CCN(c5ccncc5)CC4)C3)cc21)c1c(Cl)cccc1C(F)(F)F` [Example H-76, 2-Chloro-N-[(1R)-6-(8-pyridin-4-yl-3,8-diazaspiro[4.5]decane-3-carbonyl)-2,3-dihydro-1H-inden-1-yl]-6-(trifluoromethyl)-benzamide], the inhibition at 10 µM in test [1] was 100%; in test [2] it was 102%.
Turning to `O=C(N[C@@H]1CCOc2c(F)cc(C(=O)N3CCC4(CC3)CCN(c3ccncc3)CC4)cc21)c1ccccc1Cl` [Example H-78], the results for the inhibition at 10 µM in test [1] and in test [2] were 100% and 104%, respectively.
The like results for `O=C(N[C@@H]1CCCc2ccc(C(=O)N3CCC4(CCCN(c5ccncc5)C4)CC3)cc21)c1ccccc1Cl` [Example H-80] were, in that order, 57% and 105%.
Consider `O=C(N[C@@H]1CCCc2ccc(C(=O)N3CCC4(CCCN(c5ccncc5)C4)C3)cc21)c1ccccc1Cl` (stereo partly drawn) [Example H-81, 2-Chloro-N-[(1R)-7-(7-pyridin-4-yl-3,7-diazaspiro[4.5]decane-3-carbonyl)-1,2,3,4-tetrahydro-naphthalen-1-yl]-benzamide], for which the inhibition at 10 µM in test [1] worked out at 78%; in test [2] it was 103%.
In the same order, the values of `O=C(N[C@@H]1CCCc2cc(F)c(C(=O)N3CCC4(CCN(c5ccncc5)CC4)C3)cc21)c1ccccc1Cl` [Example H-82, 2-Chloro-N-[(1R)-6-fluoro-7-(8-pyridin-4-yl-3,8-diazaspiro[4.5]decane-3-carbonyl)-1,2,3,4-tetrahydro-naphthalen-1-yl]-benzamide] are 100% and 104%.
The like results for `O=C(N[C@@H]1CCc2ccc(C(=O)N3CCC4(CC3)CCN(c3ccncc3)C4)cc21)c1c(Cl)cccc1C(F)(F)F` [Example H-83, 2-Chloro-N-[(1R)-6-(3-pyridin-4-yl-3,8-diazaspiro[4.5]decane-8-carbonyl)-2,3-dihydro-1H-inden-1-yl]-6-(trifluoromethyl)-benzamide] were, in that order, 100% and 105%.
In the same order, the values of `O=C(N[C@@H]1CCc2ccc(C(=O)N3CCC4(CCN(c5ccncc5)CC4)C3)cc21)c1cncnc1` [Example H-84, N-[(1R)-6-(8-Pyridin-4-yl-3,8-diazaspiro[4.5]decane-3-carbonyl)-2,3-dihydro-1H-inden-1-yl]-pyrimidine-5-carboxylic acid amide] are 100% and 104%.

(Values after patent US8455475B2 (Gruenenthal GmbH, priority 2009, dated 2013).)
